Assay: Example 7B: open-label multiple-dose escalation pharmacokinetic study of modified-release tablet, fasted or fed healthy subjects
Format: in vivo, human
Method: B. A second open-label, non-randomized pharmacokinetic study was conducted in healthy subjects. Fasted (cohort 1; n=19) or fed state (cohort 2, n=18) subjects received a modified-release tablet formulation of Compound 1 in a dose escalation sequence over 25 days (once daily dosing started at 0.06 mg and was slowly titrated, depending upon individual subject tolerability, by additional 0.06 mg dose increments every 5 days up to 0.3 mg once daily).
Each subject received a once daily dose of the modified-release Compound 1 for 5 days, with up to four sequential dose escalations every 5 days: • Regimen A (0.06 mg modified-release Compound 1): 1×0.06 mg Compound 1 modified-release tablet for 5 days • Regimen B (0.12 mg modified-release Compound 1): 2×0.06 mg Compound 1 modified-release tablet for 5 days • Regimen C (0.18 mg modified-release Compound 1): 3×0.06 mg Compound 1 modified-release tablet for 5 days • Regimen D (0.24 mg modified-release Compound 1): 4×0.06 mg Compound 1 modified-release tablet for 5 days • Regimen E (0.30 mg modified-release Compound 1): 5×0.06 mg Compound 1 modified-release tablet for 5 days

Exposure in the fed and fasted states (after single administration and at steady state): similar | increase of Cmax at steady state, female vs male subjects (modified-release tablet): greater than 42% | mean plasma exposure measures, females compared to males (modified-release tablet once daily): Somewhat higher | peak-trough fluctuation (modified-release tablet once daily, across dose levels): low peak-trough fluctuation | Tmax, fed state (modified-release tablet, fed vs fasted): delayed in the fed state
Compound: O=C(O)COC[C@H]1CC[C@H](COC(=O)N(c2ccccc2)c2ccc(Cl)cc2)CC1 [Compound 1, 2-(((1r,4r)-4-(((4-chlorophenyl)(phenyl)carbamoyloxy)methyl)cyclohexyl)methoxy)acetic acid]

— patent US12642771B2, “Compositions comprising PGI2-receptor agonists and processes for the preparation thereof” (Arena Pharmaceuticals, Inc., priority 2017, dated 2026)
